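Cultured in 96-well plates, cells were exposed to test compound for 48 hours across five concentrations. GI50 marks 50% less growth.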 Calls of active or inactive are those of the source. Cut-off read from the data, not from the text of the source: active = GI50 up to about 1.1 µM and inactive = higher.
How the values were obtained:
Assay in all cases: NCI tumour cell line growth inhibition, 48 h
SNB-19 = test system: SNB-19
OVCAR-3 = test system: OVCAR-3
OVCAR-5 = test system: OVCAR-5
SN12C = test system: SN12C
SK-OV-3 = test system: SK-OV-3
OVCAR-8 = test system: OVCAR-8
HOP-92 = test system: HOP-92
A498 = test system: A498
MOLT-4 = test system: MOLT-4
COLO 205 = test system: COLO 205
NCI-H226 = test system: NCI-H226
MCF7 = test system: MCF7
A549 = test system: A549
KM12 = test system: KM12
IGROV-1 = test system: IGROV-1
NCI-H522 = test system: NCI-H522
SW-620 = test system: SW-620
HOP-62 = test system: HOP-62
U-251 = test system: U-251
K562 = test system: K562

Measured: GI50

CCCNC(=O)C(C)C1CCC2(C)C=CC(=O)C(C)=C2C1O (stereo not given)
inactive: SNB-19 > 100 µM | OVCAR-3 > 100 µM | OVCAR-5 > 100 µM | SN12C > 100 µM | SK-OV-3 > 100 µM | OVCAR-8 > 100 µM | HOP-92 > 100 µM | A498 > 100 µM | MOLT-4 > 100 µM | COLO 205 > 100 µM | NCI-H226 > 100 µM | MCF7 > 100 µM | A549 > 100 µM | KM12 > 100 µM | IGROV-1 > 100 µM | NCI-H522 > 100 µM | SW-620 > 100 µM | HOP-62 > 100 µM | U-251 > 100 µM | K562 > 100 µM

C[C@H]1COC(c2ccccn2)=N1
inactive: SNB-19 > 100 µM | OVCAR-3 > 100 µM | OVCAR-5 > 100 µM | SN12C > 100 µM | SK-OV-3 > 100 µM | OVCAR-8 > 100 µM | HOP-92 > 100 µM | A498 > 100 µM | MOLT-4 > 100 µM | COLO 205 > 100 µM | NCI-H226 > 100 µM | MCF7 > 100 µM | A549 > 100 µM | KM12 > 100 µM | IGROV-1 > 100 µM | NCI-H522 > 100 µM | SW-620 > 100 µM | HOP-62 > 100 µM | U-251 > 100 µM | K562 > 100 µM

Oc1ccc(-c2nc3ccc4ccccc4c3c3c2CCCC3)c(O)c1
inactive: SNB-19 16.3 µM | OVCAR-3 24.4 µM | OVCAR-5 20 µM | SN12C 17.7 µM | SK-OV-3 48.6 µM | OVCAR-8 13.8 µM | HOP-92 24.7 µM | A498 51.1 µM | MOLT-4 > 48.3 µM | COLO 205 11.1 µM | NCI-H226 > 63 µM | MCF7 27.7 µM | A549 23.2 µM | KM12 13.8 µM | IGROV-1 4.34 µM | NCI-H522 12.1 µM | SW-620 20.4 µM | HOP-62 57.7 µM | U-251 4.1 µM | K562 > 100 µM

CCNCCCCNCC
inactive: SNB-19 > 3750 µM | OVCAR-3 > 3750 µM | OVCAR-5 > 3750 µM | SN12C > 2330 µM | SK-OV-3 > 3750 µM | OVCAR-8 > 3750 µM | HOP-92 > 3750 µM | A498 > 3750 µM | MOLT-4 1390 µM | COLO 205 > 3750 µM | NCI-H226 2420 µM | MCF7 > 3750 µM | A549 > 3750 µM | KM12 > 3750 µM | IGROV-1 > 3750 µM | NCI-H522 > 3240 µM | SW-620 > 3750 µM | HOP-62 > 3750 µM | U-251 > 3230 µM | K562 > 3750 µM

NC(Cc1cc(I)c(O)c(I)c1)C(=O)O (stereo not given)
inactive: SNB-19 249 µM | OVCAR-3 > 500 µM | OVCAR-5 > 427 µM | SN12C > 500 µM | SK-OV-3 > 500 µM | OVCAR-8 > 500 µM | HOP-92 13.6 µM | A498 > 500 µM | MOLT-4 401 µM | COLO 205 263 µM | NCI-H226 > 500 µM | MCF7 > 394 µM | A549 > 500 µM | KM12 > 500 µM | IGROV-1 > 500 µM | NCI-H522 44.5 µM | SW-620 163 µM | HOP-62 > 500 µM | U-251 > 500 µM | K562 > 500 µM

CCCCCCOP(=O)(OCCCCCC)C(NC(=O)OCC)(C(F)(F)F)C(F)(F)F
inactive: SNB-19 39.4 µM | OVCAR-3 45.1 µM | OVCAR-5 43.8 µM | SN12C 34 µM | SK-OV-3 29 µM | OVCAR-8 36.1 µM | HOP-92 28.4 µM | A498 > 100 µM | MOLT-4 > 100 µM | COLO 205 16.6 µM | NCI-H226 24.9 µM | MCF7 37.2 µM | A549 36.9 µM | KM12 39.1 µM | IGROV-1 34 µM | NCI-H522 28.1 µM | SW-620 33.3 µM | HOP-62 > 100 µM | U-251 36.8 µM | K562 39.4 µM

[N-]=[N+]=CC(=O)CCC(NC(=O)C(CCC(=O)C=[N+]=[N-])NC(=O)CCC(N)C(=O)O)C(=O)O (stereo not given)
inactive: SNB-19 > 100 µM | OVCAR-3 > 100 µM | OVCAR-5 > 100 µM | SN12C > 100 µM | SK-OV-3 > 100 µM | OVCAR-8 > 100 µM | HOP-92 > 100 µM | A498 > 100 µM | MOLT-4 > 100 µM | COLO 205 > 100 µM | NCI-H226 > 100 µM | MCF7 > 100 µM | A549 > 100 µM | KM12 31.6 µM | IGROV-1 > 100 µM | NCI-H522 > 100 µM | SW-620 > 100 µM | HOP-62 > 100 µM | U-251 > 100 µM | K562 > 100 µM
